The source of these data is publication PMC10653770 (Journal of Enzyme Inhibition and Medicinal Chemistry, 2023).

Data set [1] has as its system SH − SY5Y cells. Particulars: for toxicity towards SHSY5Y cells: within the tested concentration range.
Another data set in a line: in vitro. The following applies: human.
For data set [2], the target named is AChE − induced Aβ1 − 42 aggregation (Homo sapiens, UniProt P22303). Type of data set: biochemical. The following applies: co-incubation with Aβ1-42 and AChE for 24h; 0.1 μM and 1 μM compound.
AChE − induced Aβ1 − 42 aggregation, sequence (P22303 32-614): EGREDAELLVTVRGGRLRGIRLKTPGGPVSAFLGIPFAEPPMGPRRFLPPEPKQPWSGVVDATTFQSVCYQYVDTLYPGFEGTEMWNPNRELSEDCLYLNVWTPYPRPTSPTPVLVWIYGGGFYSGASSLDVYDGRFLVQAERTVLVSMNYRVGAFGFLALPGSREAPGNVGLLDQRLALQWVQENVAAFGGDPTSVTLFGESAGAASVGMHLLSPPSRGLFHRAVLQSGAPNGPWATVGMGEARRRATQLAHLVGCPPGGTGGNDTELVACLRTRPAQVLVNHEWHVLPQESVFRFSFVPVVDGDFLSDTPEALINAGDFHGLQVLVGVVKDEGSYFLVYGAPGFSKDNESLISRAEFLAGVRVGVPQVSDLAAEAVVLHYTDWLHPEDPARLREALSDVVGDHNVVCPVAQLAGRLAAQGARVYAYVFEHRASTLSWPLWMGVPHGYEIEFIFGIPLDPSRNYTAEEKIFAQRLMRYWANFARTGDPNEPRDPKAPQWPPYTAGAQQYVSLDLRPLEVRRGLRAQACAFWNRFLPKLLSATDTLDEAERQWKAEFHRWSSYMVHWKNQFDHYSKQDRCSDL
The target in another data set is hAChE (Homo sapiens, UniProt P22303). As to the kind of experiment: Kinetic profiling of AChE inhibition. The following applies: Lineweaver–Burk plot. It is filed as biochemical.
hAChE, sequence (P22303 32-614): as above
The subject of data set [3] is SH − SY5Y cells. Type of data set: cell-based, human. The following applies: 1 μM compound; Aβ1 − 42 20 μM, 48 h.

The viability is a read-out of living cells in per cent, often relative to untreated cells.

Molecules are shown by their SMILES.

Consider `C=CCn1c2cc(OC(=O)CCCCN3CCN(Cc4ccc(F)cc4)CC3)ccc2c2ccnc(C)c21` [Compound 17d, 9-allyl-1-methyl-9H-pyrido[3,4-b]indol-7-yl 5–(4-(4-fluorobenzyl)piperazin-1-yl)pentanoate], for which the “toxicity towards SHSY5Y cells” value in the data set with SH − SY5Y cells [1] is “weak toxicity”. This molecule had a viability at 10 µM in “in vitro” of over 79%. Further, the “AChE − induced Aβ1 − 42 aggregation” value in data set [2] is “significant reduction in Aβ1 − 42 aggregation”.

In the case of `C=CCn1c2cc(OC(=O)CCCCN3CCN(Cc4ccccc4)CC3)ccc2c2ccnc(C)c21` [Compound 13, 9-allyl-1-methyl-9H-pyrido[3,4-b]indol-7-yl 5–(4-benzylpiperazin-1-yl)pentanoate], the “cytotoxicity in SHSY5Y cells” value with SH − SY5Y cells [1] (0.1 to 1 μM, 48h incubation) is “negligible cytotoxicity”. In addition, the “toxicity towards SHSY5Y cells” value in the data set with SH − SY5Y cells [1] is “weak toxicity”. In addition, the “type of AChE inhibition” value at hAChE is recorded as “mixed − type inhibition”. The same molecule yielded a viability at 10 µM in “in vitro” of over 79%. Further, the “AChE − induced Aβ1 − 42 aggregation” value in data set [2] is “significant reduction in Aβ1 − 42 aggregation”. Further, the “cellular recovery against Aβ1 − 42−induced damage” value in the data set with SH − SY5Y cells [3] is on record as “exceptional cellular recovery”.
